Test results from US10246453B2, “Benzenesulfonamide compounds and their use as therapeutic agents” (Xenon Pharmaceuticals Inc., priority 2016, dated 2019).
Structures can show the parent of a compound that is named as a salt.

Tests used:
NaV1.6 [1] = molecular target: T1, NaV1.6 (Homo sapiens (Human), UniProt Q9UQD0); experiment: Sodium Influx Assay (Flux), NaV1.6; conditions: read-out: Flux NaV1.6 IC50; Trex HEK293 cells, ANG2 dye; arithmetic mean
NaV1.6 [2] = molecular target: T1, NaV1.6; experiment: Electrophysiological Assay (EP), patch voltage clamp, NaV1.6; assay type: cell-based; conditions: HEK-293 cells, whole-cell patch clamp, inactivated state; arithmetic mean
From the text: Patch voltage clamp electrophysiology allows for the direct measurement and quantification of block of voltage-gated sodium channels (Nay's), and allows the determination of the time-and voltage-dependence of block which has been interpreted as differential binding to the resting, open, and inactivated states of the sodium channel (Hille, B., Journal of General Physiology (1977), 69: 497-515).
NaV1.1, NaV1.5 and NaV1.6 cDNAs (NM_001165964 (SCN1A), NM_000335 (SCN5A) and NM_014191 (SCN8A), respectively) were stably expressed in HEK-293 cells.
Sodium currents were measured using the patch clamp technique in the whole-cell configuration using either a PatchXpress automated voltage clamp or manually using an Axopatch 200B (Axon Instruments) or Model 2400 (A-M systems) amplifier.
The manual voltage clamp protocol was as follows: Borosilicate glass micropipettes were fire-polished to a tip diameter yielding a resistance of 2-4 Mohms in the working solutions. […] In some studies, the external sodium was reduced by equimolar replacement with choline. Osmolarity in the CsF internal and NaCl external solutions was adjusted to 300 mOsm/kg and 310 mOsm/kg with glucose, respectively. All recordings were performed at ambient temperature in a bath chamber with a volume of 150 μL. Control sodium currents were measured in 0.5% DMSO. Controls and representative compounds of the invention were applied to the recording chamber through a 4-pinch or 8-pinch valve bath perfusion system manufactured by ALA Scientific Instruments.
Currents were recorded at 40 kHz sampling frequency, filtered at […], and stored using a Digidata-1322A analogue/digital interface with the pClamp software (Axon Instruments). Series resistance compensation was applied (60-80%). […] All statistics in this study are given as mean±SD.
The membrane potential was maintained at a voltage where inactivation of the channel is complete. The voltage is then stepped back to a very negative (Vhold=−150 mV) voltage for 20 ms and then a test pulse is applied to quantify the compound block. The 20 ms brief repolarization was long enough for compound-free channels to completely recover from fast inactivation, but the compound-bound channels recovered more slowly such that negligible recovery could occur during this interval. The percent decrease in sodium current following wash-on of compound was taken as the percent block of sodium channels.

NaV1.1 = NaV1.1 (Homo sapiens (Human), UniProt P35498); experiment: Sodium Influx Assay (Flux), NaV1.1; assay type: cell-based; conditions: Trex HEK293 cells, ANG2 dye; arithmetic mean
NaV1.5 = NaV1.5 (Homo sapiens (Human), UniProt Q14524); experiment: Sodium Influx Assay (Flux), NaV1.5; conditions: read-out: Flux NaV1.5 IC50; Trex HEK293 cells, ANG2 dye; arithmetic mean
Sequence of NaV1.5 (Q14524 other isoform, or with tags, fused parts or gaps): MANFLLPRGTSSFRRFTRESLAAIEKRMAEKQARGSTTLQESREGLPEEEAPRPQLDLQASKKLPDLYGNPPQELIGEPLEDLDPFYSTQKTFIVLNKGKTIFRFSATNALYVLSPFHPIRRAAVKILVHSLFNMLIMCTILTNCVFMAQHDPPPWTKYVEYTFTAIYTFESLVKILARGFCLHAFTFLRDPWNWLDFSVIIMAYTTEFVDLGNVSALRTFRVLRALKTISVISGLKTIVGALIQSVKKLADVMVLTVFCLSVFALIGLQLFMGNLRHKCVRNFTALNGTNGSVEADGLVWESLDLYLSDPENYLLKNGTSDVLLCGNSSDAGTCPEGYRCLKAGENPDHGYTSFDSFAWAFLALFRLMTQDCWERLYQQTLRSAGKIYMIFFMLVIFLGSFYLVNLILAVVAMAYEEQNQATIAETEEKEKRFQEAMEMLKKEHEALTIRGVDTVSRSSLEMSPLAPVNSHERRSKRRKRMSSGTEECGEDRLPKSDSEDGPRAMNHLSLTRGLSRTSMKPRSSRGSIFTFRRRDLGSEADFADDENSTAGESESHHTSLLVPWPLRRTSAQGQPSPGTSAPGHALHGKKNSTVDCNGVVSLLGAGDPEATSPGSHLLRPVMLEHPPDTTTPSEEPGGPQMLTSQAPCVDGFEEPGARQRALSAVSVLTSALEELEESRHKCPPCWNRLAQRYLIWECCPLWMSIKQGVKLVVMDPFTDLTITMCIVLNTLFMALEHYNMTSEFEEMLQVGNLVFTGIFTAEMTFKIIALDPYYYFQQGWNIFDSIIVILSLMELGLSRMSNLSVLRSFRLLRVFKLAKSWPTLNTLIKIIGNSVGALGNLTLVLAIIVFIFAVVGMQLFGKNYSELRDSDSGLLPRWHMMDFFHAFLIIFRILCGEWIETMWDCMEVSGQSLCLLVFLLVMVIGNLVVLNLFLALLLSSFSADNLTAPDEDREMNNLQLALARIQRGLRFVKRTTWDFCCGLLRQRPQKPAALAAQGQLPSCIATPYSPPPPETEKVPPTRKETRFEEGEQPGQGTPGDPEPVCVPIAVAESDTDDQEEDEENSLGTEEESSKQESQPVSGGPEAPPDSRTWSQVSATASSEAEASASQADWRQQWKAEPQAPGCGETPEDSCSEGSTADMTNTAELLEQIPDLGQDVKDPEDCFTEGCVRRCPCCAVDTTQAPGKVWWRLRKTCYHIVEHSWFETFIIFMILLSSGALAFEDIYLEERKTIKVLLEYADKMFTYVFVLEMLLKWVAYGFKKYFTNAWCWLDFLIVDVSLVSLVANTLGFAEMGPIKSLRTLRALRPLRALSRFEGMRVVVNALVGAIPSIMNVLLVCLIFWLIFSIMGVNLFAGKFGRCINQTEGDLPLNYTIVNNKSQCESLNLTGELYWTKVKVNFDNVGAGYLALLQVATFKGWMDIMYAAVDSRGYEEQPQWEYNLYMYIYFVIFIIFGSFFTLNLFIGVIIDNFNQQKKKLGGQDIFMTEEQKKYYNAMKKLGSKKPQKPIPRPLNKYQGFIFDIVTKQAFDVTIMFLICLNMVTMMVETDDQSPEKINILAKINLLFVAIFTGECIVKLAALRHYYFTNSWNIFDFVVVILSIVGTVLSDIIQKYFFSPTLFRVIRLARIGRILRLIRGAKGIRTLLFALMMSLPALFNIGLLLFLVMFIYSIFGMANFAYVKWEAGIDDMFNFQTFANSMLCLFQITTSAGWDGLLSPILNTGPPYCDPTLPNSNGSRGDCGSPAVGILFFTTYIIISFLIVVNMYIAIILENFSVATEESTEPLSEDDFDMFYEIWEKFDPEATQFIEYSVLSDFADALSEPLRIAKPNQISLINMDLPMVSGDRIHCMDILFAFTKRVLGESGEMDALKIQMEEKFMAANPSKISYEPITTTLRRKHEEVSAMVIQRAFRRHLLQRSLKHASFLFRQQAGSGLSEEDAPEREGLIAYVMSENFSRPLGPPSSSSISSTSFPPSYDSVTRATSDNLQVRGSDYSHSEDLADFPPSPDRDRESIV

T1 sequence (Q9UQD0 whole entry): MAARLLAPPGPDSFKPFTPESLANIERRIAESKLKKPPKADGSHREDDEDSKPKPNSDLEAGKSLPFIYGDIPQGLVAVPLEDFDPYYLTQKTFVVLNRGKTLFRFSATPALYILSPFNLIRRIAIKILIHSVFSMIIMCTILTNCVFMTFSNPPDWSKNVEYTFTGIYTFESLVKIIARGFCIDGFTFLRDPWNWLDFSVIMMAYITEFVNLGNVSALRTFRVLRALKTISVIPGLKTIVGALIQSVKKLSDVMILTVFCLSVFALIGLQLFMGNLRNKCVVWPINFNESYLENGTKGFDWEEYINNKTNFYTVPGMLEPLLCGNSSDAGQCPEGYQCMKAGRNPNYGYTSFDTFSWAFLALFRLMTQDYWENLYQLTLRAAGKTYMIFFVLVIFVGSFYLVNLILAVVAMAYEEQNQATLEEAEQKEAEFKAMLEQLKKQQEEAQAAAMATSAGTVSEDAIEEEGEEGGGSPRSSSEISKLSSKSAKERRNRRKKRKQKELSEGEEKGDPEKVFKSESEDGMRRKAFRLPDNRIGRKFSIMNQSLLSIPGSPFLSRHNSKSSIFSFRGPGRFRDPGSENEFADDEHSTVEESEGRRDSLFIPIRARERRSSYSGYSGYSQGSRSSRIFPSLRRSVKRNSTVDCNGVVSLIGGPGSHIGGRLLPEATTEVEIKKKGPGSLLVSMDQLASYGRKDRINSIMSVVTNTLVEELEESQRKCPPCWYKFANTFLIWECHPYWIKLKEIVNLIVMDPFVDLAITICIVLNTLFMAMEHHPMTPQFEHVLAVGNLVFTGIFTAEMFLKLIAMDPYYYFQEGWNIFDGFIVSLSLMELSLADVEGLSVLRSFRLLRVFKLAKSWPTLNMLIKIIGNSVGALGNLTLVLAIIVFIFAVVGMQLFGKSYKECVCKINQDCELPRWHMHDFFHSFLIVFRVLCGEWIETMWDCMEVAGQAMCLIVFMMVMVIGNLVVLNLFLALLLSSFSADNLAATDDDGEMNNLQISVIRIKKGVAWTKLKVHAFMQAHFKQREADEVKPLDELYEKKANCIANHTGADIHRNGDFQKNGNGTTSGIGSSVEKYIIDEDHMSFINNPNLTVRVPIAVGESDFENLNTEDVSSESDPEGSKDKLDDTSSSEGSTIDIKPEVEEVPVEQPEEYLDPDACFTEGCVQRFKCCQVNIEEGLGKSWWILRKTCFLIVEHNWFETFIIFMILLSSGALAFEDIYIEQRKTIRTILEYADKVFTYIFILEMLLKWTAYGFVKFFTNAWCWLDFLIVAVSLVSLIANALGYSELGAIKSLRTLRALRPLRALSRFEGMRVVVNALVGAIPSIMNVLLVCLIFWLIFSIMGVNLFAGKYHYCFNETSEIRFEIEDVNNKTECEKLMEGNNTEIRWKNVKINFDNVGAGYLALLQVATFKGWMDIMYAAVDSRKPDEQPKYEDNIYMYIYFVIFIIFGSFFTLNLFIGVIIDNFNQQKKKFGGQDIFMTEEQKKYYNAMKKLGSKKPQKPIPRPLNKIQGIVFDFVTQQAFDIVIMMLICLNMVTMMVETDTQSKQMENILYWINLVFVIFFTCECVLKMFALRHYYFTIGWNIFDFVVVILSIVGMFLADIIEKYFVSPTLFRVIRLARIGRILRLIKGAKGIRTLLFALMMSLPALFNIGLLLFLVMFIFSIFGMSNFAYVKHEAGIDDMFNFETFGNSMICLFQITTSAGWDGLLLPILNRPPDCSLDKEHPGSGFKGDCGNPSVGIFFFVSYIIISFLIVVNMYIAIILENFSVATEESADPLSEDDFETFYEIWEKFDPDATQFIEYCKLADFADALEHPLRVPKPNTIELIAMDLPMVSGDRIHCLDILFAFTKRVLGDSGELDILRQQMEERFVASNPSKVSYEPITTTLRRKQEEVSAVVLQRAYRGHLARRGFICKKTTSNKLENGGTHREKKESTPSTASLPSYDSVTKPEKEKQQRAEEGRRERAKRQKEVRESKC

| Compound | IC50 (NaV1.6 [1]) | IC50 (NaV1.6 [2]) | IC50 (NaV1.1) | IC50 (NaV1.5) |
| --- | --- | --- | --- | --- |
| Cc1cc(S(=O)(=O)Nc2cscn2)c(F)cc1N(C)[C@H]1CCN(Cc2ccccc2)C1 [Example 101, (S)-4-((1-benzylpyrrolidin-3-yl)(methyl)amino)-2-fluoro-5-methyl-N-(thiazol-4-yl)benzenesulfonamide formate] | 272 nM | 54 nM |  |  |
| Cc1c(OC2CCN([C@H](C)c3ccccc3)CC2)cc(F)c(S(=O)(=O)Nc2cscn2)c1F [Example 282, (R)-2,6-difluoro-3-methyl-4-((1-(1-phenylethyl)piperidin-4-yl)oxy)-N-(thiazol-4-yl)benzenesulfonamide 2,2,2-trifluoroacetate] | 5 nM | 5 nM | 17300 nM | 23900 nM |
| Cc1c(N(C)[C@H]2CCN(Cc3ccccc3)C2)cc(F)c(S(=O)(=O)Nc2ncns2)c1F [Example 295, (S)-4-((1-benzylpyrrolidin-3-yl)(methyl)amino)-2,6-difluoro-3-methyl-N-(1,2,4-thiadiazol-5-yl)benzenesulfonamide] | 9 nM | 1 nM | 17100 nM | 25900 nM |
| CC1(C)CN(Cc2ccccc2)CCC1Oc1ccc(S(=O)(=O)Nc2ncns2)cc1Cl (centres unmarked) [Example 2, 4-((1-benzyl-3,3-dimethylpiperidin-4-yl)oxy)-3-chloro-N-(1,2,4-thiadiazol-5-yl)benzenesulfonamide 2,2,2-trifluoroacetate] | 1360 nM | 381 nM | 22500 nM | 6320 nM |
| Cc1cc(C)cc(CN2CC[C@H](Oc3ccc(S(=O)(=O)Nc4ncns4)cc3Cl)C2)c1 [Example 99, (S)-3-chloro-4-(1-(3,5-dimethylbenzyl)pyrrolidin-3-yloxy)-N-(1,2,4-thiadiazol-5-yl)benzenesulfonamide 2,2,2-trifluoroacetate] | 1410 nM | 4440 nM | > 30000 nM | > 30000 nM |
| O=S(=O)(Nc1ncns1)c1ccc(NC2CCN(Cc3ccccc3)CC2)c(Cl)c1 [Example 46, 4-((1-benzylpiperidin-4-yl)amino)-3-chloro-N-(1,2,4-thiadiazol-5-yl)benzenesulfonamide 2,2,2-trifluoroacetate] | 731 nM | 278 nM | 4130 nM | > 30000 nM |
| O=S(=O)(Nc1nccs1)c1ccc(OC2CCN(Cc3ccccc3)CC2)c(Cl)c1 [Example 95, 4-(1-benzylpiperidin-4-yloxy)-3-chloro-N-(thiazol-2-yl)benzenesulfonamide 2,2,2-trifluoroacetate] | 416 nM | 177 nM |  | 20900 nM |
| Cc1cc(S(=O)(=O)Nc2ccsn2)c(F)cc1N(C)[C@H]1CCN(Cc2ccccc2)C1 [Example 277, (S)-4-((1-benzylpyrrolidin-3-yl)(methyl)amino)-2-fluoro-N-(isothiazol-3-yl)-5-methylbenzenesulfonamide 2,2,2-trifluoroacetate] | 153 nM | 27 nM | 24900 nM | > 30000 nM |
| O=S(=O)(Nc1ncns1)c1ccc(NC2CCN(Cc3ccccc3)C2)c(Cl)c1 (centres unmarked) [Example 26, 4-((1-benzylpyrrolidin-3-yl)amino)-3-chloro-N-(1,2,4-thiadiazol-5-yl)benzenesulfonamide trifluoroacetate] | 235 nM | 164 nM | 15000 nM | > 30000 nM |
| Cc1cccc(CN2CC[C@H](N(C)c3cc(F)c(S(=O)(=O)Nc4cscn4)c(F)c3Cl)C2)n1 [Example 267, (S)-3-chloro-2,6-difluoro-4-(methyl(1-((6-methylpyridin-2-yl)methyl)pyrrolidin-3-yl)amino)-N-(thiazol-4-yl)benzenesulfonamide] | 182 nM | 66 nM | > 30000 nM | > 30000 nM |
| CN(c1ccc(S(=O)(=O)Nc2ncns2)cc1Cl)[C@H]1CCN(Cc2cccc(C(F)F)c2)C1 [Example 31, (S)-3-chloro-4-((1-(3-(difluoromethyl)benzyl)pyrrolidin-3-yl)(methyl)amino)-N-(1,2,4-thiadiazol-5-yl)benzenesulfonamide] | 13 nM | 29 nM | 27700 nM | > 30000 nM |
| O=S(=O)(Nc1ncns1)c1ccc(N[C@H]2CCN(Cc3ccccc3)C2)c(Cl)c1 [Example 67, (S)-4-((1-benzylpyrrolidin-3-yl)amino)-3-chloro-N-(1,2,4-thiadiazol-5-yl)benzenesulfonamide 2,2,2-trifluoroacetate] | 310 nM | 453 nM | > 30000 nM | > 30000 nM |
| Cc1c(O[C@@]2(C)CCN(Cc3ccccc3)C2)cc(F)c(S(=O)(=O)Nc2cscn2)c1F [Example 158, (S)-4-((1-benzyl-3-methylpyrrolidin-3-yl)oxy)-2,6-difluoro-3-methyl-N-(thiazol-4-yl)benzenesulfonamide formate] | 9 nM | 8 nM | 24200 nM | > 30000 nM |
| C[C@H](c1ccccc1)N1CCC(Oc2cc(F)c(S(=O)(=O)Nc3cscn3)c(F)c2)CC1 [Example 291, (R)-2,6-difluoro-4-((1-(1-phenylethyl)piperidin-4-yl)oxy)-N-(thiazol-4-yl)benzenesulfonamide 2,2,2-trifluoroacetate] | 578 nM | 447 nM | > 30000 nM | > 30000 nM |
| O=S(=O)(Nc1ncns1)c1ccc(O[C@H]2CCN(Cc3ccccc3)C2)c(Cl)c1 [Example 97, (S)-4-(1-benzylpyrrolidin-3-yloxy)-3-chloro-N-(1,2,4-thiadiazol-5-yl)benzenesulfonamide 2,2,2-trifluoroacetate] | 1450 nM | 2940 nM | > 30000 nM | > 30000 nM |
| O=S(=O)(Nc1nccs1)c1cc(Cl)c(OC2CCN(Cc3ccccc3)CC2)cc1F [Example 47, 4-((1-benzylpiperidin-4-yl)oxy)-5-chloro-2-fluoro-N-(thiazol-2-yl)benzenesulfonamide 2,2,2-trifluoroacetate] | 943 nM | 479 nM | 12300 nM | 15900 nM |
| O=S(=O)(Nc1cccc(F)n1)c1ccc(OC2CCN(Cc3ccccc3)CC2)c(Cl)c1 [Example 77, 4-((1-benzylpiperidin-4-yl)oxy)-3-chloro-N-(6-fluoropyridin-2-yl)benzenesulfonamide 2,2,2-trifluoroacetate] | 7610 nM | 5570 nM | 19000 nM | 26600 nM |
| C[C@H](c1ccccc1)N1CCC(Oc2ccc(S(=O)(=O)Nc3nccs3)cc2Cl)CC1 [Example 55, (R)-3-chloro-4-((1-(1-phenylethyl)piperidin-4-yl)oxy)-N-(thiazol-2-yl)benzenesulfonamide 2,2,2-trifluoroacetate] | 187 nM | 32 nM |  |  |
| O=S(=O)(Nc1ncns1)c1ccc(N[C@@H]2CCN(Cc3ccccc3)C2)c(Cl)c1 [Example 66, (R)-4-((1-benzylpyrrolidin-3-yl)amino)-3-chloro-N-(1,2,4-thiadiazol-5-yl)benzenesulfonamide 2,2,2-trifluoroacetate] | 148 nM | 144 nM | 5510 nM | > 30000 nM |
